Read-outs that look alike come from different tables or passages of the source. Values belong to the molecule of their own block, whether it stands above or below them.
How the values were obtained:
[1] = Miglustat plasma pharmacokinetics; assay type: in vivo, human; conditions: 130 mg to 260 mg
Description: At the recommended 260 mg dose, the mean Cmax was approximately 3 mcg/mL and the mean AUC was approximately 25 mcg*hr/mL. The mean time to reach the maximum concentration ranged from 2 hours to 3 hours.

clinical = conditions: human, in vivo
Description: At 10Y7M of age, the blood of the patient was collected to gather pharmacokinetic (PK) data for their treatment that included weekly administration of 20 mg/kg ATB200 and 130 mg AT2221.
Blood sampling of the patient was conducted to gather pharmacokinetic (PK) data for their treatment that included administration of 25 mg/kg ATB200 and 195 mg AT2221 biweekly.
At 12Y5M of age, the patient has been receiving ATB200 (20 mg/kg) and AT2221 (195 mg) biweekly for 1 year. […] At this time, the PK levels of both ATB200 and AT2221 were taken from the patient.

CIMPR = CIMPR (Homo sapiens, UniProt P11717); assay: CIMPR affinity chromatography (bound vs unbound rhGAA by GAA activity); assay type: binding
Text: Multiple batches of the rhGAA according to the disclosure were produced in shake flasks and in perfusion bioreactors using CHO cell line GA-ATB200, the product of which is referred to as “ATB200.” Weak anion exchange (“WAX”) liquid chromatography was used to fractionate ATB200 rhGAA according to terminal phosphate and sialic acid. Elution profiles were generated by eluting the ERT with increasing amount of salt. The profiles were monitored by UV (A280 nm).
To evaluate the ability of the conventional rhGAAs in MYOZYME® and LUMIZYME® to interact with the CIMPR, the two conventional rhGAA preparations were injected onto a CIMPR affinity column (which binds rhGAA having M6P groups) and the flow through collected. The bound material was eluted with a free M6 gradient. Fractions were collected in 96-well plate and GAA activity assayed by 4MU-α-glucosidase substrate. The relative amounts of unbound (flow through) and bound (M6P eluted) rhGAA were determined based on GAA activity and reported as the fraction of total enzyme. […] Indeed, only 27% of the rhGAA in MYOZYME® and 22% of the rhGAA in LUMIZYME® contained M6P that can be productive to target it to the CIMPR on muscle cells.

[2] = system: single fibers isolated from the white gastrocnemius of Gaa KO mice; assay: Single fiber analysis (LAMP1/LC3 co-immunofluorescence); assay type: in vivo
Text: FIG. 17 depicts co-immunofluorescent staining of LAMP1 (green) (see for example, “B”) and LC3 (red) (see, for example, “A”) in single fibers isolated from the white gastrocnemius of Gaa KO mice treated with a vehicle, alglucosidase alfa, or ATB200. “C” depicts clearance of autophagic debris and absence of enlarged lysosome. A minimum of 30 fibers were examined from each animal.
As a result, a significant portion of muscle fibers analyzed (36-60%) from ATB200-treated mice appeared normal or near-normal.

[3] = system: pediatric patient with infantile Pompe disease; assay: Example 16: pediatric IOPD patient switched from Myozyme to ATB200/AT2221; assay type: in vivo, human
Text: A patient with severe infantile Pompe disease presented. The patient underwent a comprehensive physical examination, measurement of GAA enzyme activity, genetic testing of the GAA gene and muscle biopsy to establish the diagnosis.
The patient received the high-dose enzyme replacement therapy with Myozyme after diagnosis. The patient responded very poorly to therapy. Due to rapidly progressing Pompe disease and inadequate response to therapy, the patient's survival was at risk. For the patient, the opportunity arose to receive the new ATB200/AT2221 ERT via a compassionate use/Expanded Access Program (EAP).
The index patient has regular measurement of the urinary Glc4-levels since the change of the ERT to ATB200. The Glc4-levels were determined by an established method from the Duke University. The analysis of Glc4 is standardized as a butyl-4-aminobenzoate derivative using [^13C6] Glc4 as the internal standard (IS). The measurement is performed as ultra-performance liquid chromatography-tandem mass spectrometry (UPLC-MS/MS). The Glc4-values are then normalized to creatinine.
The patient presented with IOPD at 6 months and was started on the standard dose of Myozyme (20 mg/kg/bi-weekly). Due to the inadequate response to therapy, the dose was doubled just one month after the start of therapy in form of a weekly administration of Myozyme. […] But the cardiological situation deteriorated progressively.
Therefore, just three months after initiation of therapy, the dose was again doubled to 40 mg/kg/weekly, so the patient received a total of four times the standard dose. With the intensification of ERT and cardiac therapy, the patient's condition initially stabilized. Nevertheless, over the next few months, the patient's general condition steadily deteriorated, and the patient decompensated, especially respiratory.
The patient was switched from Myozyme to ATB200/AT2221 after eight months of insufficient Myozyme therapy response. The patient was […] at the time of the therapy switch. The new therapy (via EAP) was initiated with the oral administration of 30 mg premedication AT2221 (Miglustat) one hour prior to enzyme administration. ATB200 was administered at a bi-weekly interval at a dosage of 20 mg/kg. In the further course of treatment, the dosage of premedication and ERT was repeatedly adjusted and optimized (see Table 22). Some actual dosages in Table 22 (e.g., 37 mg/kg and 34.5 mg/kg at 32 and 38 months, respectively) varied from the target dose (e.g., 30 mg/kg) to avoid waste of extra material left in vials.
The Gross Motor Function Measure 66 (GMFM 66) is used to quantify a patients' motor skills. The GMFM 66 is a worldwide standardized test developed and validated for children with cerebral palsy to measure the development of gross motor function over time. During testing 66 items are examined and a score from 0 to 100 points is possible.

pediatric IOPD patient [4] = assay type: in vivo, human
Description: The patient, first-born of unrelated parents […]), was born at 37 weeks by an emergency delivery due to fetal heart failure. At birth, they were resuscitated and admitted to the NICU for invasive ventilatory assistance and circulation support.
Moreover, the patient presented with severe hypotonia, elevated serum CPK (1063 U/L) and BNP ([…], nv 0-100).
At 3 days of life, an extended newborn screening resulted positive for Pompe Disease (GAA activity in DBS 0.40 μM/L, nv>3). uGlc4 was elevated (71.2 mmol/mol creatinine, nv <16.3).
At 5 days of life, the patient was treated with alglucosidase alfa (Myozyme®). Simultaneously, an immunomodulation protocol with rituximab, ev immunoglobulins and methotrexate was started. In addition, an appropriate therapy for the heart failure was started (betablocker, diuretics, ACE inhibitor).
At 2.5 years of life, they started a compassionate use/EAP therapy that combined a new ERT (cipaglucosidase 30 mg/kg/week) with an enzyme stabilizer (miglustat 115 mg) (ATB200-15 Program, Amicus Therapeutics), with clinical benefit.

pediatric IOPD patient [5] = system: pediatric IOPD patient
[6] = after new immunomodulation cycle, on Myozyme
[7] = worsening with high antibody titer, on Myozyme
[8] = age ~1 week, Myozyme double dose 40 mg/kg q2wk

Chain of CIMPR (P11717 41-2491, species assumed): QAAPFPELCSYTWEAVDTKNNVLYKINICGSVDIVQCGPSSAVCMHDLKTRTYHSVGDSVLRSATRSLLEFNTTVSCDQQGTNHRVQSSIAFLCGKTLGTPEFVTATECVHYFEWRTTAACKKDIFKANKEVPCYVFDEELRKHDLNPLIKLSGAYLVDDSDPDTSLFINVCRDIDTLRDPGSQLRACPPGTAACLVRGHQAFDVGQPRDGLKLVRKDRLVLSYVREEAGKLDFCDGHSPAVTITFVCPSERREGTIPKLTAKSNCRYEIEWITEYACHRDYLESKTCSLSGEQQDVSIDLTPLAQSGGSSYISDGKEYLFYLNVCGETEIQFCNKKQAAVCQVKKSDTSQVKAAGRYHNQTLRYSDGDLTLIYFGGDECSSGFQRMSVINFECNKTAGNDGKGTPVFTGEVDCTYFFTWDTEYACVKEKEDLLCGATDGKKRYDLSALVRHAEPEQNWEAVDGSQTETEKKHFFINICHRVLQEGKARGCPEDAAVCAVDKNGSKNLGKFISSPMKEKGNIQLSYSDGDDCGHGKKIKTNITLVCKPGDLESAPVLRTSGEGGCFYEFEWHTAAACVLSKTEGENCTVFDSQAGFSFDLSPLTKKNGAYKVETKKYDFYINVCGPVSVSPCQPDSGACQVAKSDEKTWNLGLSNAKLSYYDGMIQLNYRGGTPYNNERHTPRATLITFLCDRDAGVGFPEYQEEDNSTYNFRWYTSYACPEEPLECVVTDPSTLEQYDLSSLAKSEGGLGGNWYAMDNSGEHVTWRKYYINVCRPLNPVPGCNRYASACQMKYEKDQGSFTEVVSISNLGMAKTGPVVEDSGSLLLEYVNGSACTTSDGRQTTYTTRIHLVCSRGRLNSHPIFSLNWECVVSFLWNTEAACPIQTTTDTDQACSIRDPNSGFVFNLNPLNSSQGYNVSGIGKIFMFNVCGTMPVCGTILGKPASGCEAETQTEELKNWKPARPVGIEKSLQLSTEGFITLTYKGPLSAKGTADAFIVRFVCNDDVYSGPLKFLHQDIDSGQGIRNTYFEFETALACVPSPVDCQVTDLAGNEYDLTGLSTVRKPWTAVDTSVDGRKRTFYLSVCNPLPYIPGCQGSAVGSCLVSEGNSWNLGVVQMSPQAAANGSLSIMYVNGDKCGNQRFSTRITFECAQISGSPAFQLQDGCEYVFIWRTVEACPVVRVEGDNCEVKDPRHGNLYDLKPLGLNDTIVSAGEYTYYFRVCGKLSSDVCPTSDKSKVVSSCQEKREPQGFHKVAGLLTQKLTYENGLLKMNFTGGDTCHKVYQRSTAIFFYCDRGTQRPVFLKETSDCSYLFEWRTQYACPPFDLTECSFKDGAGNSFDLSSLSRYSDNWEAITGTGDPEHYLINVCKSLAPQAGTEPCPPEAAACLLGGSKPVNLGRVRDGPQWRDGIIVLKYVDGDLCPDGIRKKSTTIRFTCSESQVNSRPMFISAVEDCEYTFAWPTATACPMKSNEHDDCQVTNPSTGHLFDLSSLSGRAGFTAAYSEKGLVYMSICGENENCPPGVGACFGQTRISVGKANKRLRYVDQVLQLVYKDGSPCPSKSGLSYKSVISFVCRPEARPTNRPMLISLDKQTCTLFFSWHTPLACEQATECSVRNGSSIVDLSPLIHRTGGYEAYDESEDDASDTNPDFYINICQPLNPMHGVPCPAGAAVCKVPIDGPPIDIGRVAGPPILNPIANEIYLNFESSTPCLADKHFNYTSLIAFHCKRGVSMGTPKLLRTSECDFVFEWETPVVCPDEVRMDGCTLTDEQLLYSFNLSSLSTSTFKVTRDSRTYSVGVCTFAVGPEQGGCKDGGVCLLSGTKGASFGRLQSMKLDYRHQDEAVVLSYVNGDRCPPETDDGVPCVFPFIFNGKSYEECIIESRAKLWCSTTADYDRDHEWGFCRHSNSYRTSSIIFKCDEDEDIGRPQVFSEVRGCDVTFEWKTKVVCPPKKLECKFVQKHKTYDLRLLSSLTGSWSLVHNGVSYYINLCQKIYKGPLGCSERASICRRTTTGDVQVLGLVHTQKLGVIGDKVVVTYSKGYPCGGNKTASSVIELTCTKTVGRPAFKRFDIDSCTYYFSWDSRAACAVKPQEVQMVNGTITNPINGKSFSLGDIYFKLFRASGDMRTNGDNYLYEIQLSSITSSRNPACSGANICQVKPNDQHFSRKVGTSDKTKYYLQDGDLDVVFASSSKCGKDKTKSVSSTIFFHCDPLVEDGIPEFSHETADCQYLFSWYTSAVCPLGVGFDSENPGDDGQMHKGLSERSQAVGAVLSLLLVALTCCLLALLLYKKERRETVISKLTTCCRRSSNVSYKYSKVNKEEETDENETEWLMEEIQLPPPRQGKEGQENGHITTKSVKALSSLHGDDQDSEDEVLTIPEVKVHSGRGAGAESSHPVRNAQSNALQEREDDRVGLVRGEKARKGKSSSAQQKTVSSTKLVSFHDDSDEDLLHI

dose proportionality of AUC and Cmax [1]: linear pharmacokinetics
AUC relative to adult percentiles (clinical): below the adult 10th percentile
Cmax relative to adult percentiles (clinical): within the adult 10th-90th percentile
AUC (clinical; AT2221 AUC): 16100 to 24600 ng·h/mL
Cmax (clinical; AT2221 Cmax): 1800 to 3130 ng/mL
Molecule: CCCCN1C[C@H](O)[C@@H](O)[C@H](O)[C@H]1CO [miglustat, (2R,3R,4R,5S)-1-butyl-2-(hydroxymethyl)piperidine-3,4,5-triol, reference compound]

rhGAA that binds to the CIMPR (contains M6P) (CIMPR; fraction of total enzyme by GAA activity): 27%
rhGAA that did not bind to the CIMPR (CIMPR; fraction of total enzyme by GAA activity (FIG. 9A, 9B)): 73%
Molecule: MYOZYME®: conventional rhGAA product containing alglucosidase alfa
lysosome size and autophagic buildup compared to vehicle-treated mice [2]: did not show any significant difference
motor function ([3]; 20 mg/kg/weekly): slight motor improvements
response to therapy ([3]; fourfold dose of ERT (40 mg/kg/weekly)): very poor
CPK (pediatric IOPD patient [4]; [6]): 4,728 U/L
EF (pediatric IOPD patient [4]; [6]): 48%
LVMI (pediatric IOPD patient [4]; [6]): 118 g/m2
uGlc4 (pediatric IOPD patient [4]; [6]): 35 mmol/mol crea
CPK (pediatric IOPD patient [4]; on Myozyme): 1877 u/L
EF (pediatric IOPD patient [4]; on Myozyme): 50%
uGlc4 (pediatric IOPD patient [4]; on Myozyme): 20.2 mmol/mol crea
LVMI (pediatric IOPD patient [4]; on Myozyme since day 5): 116.6 g/m2
BNP (pediatric IOPD patient [4]; [7]): 237 U/L
EF (pediatric IOPD patient [4]; [7]): 50%
LVMI (pediatric IOPD patient [4]; [7]): 229 g/m2
serum CPK, maximum (pediatric IOPD patient [4]; [7]): 6,795 U/L
uGlc4, maximum (pediatric IOPD patient [4]; [7]): 50 mmol/mol creatinine
CK (pediatric IOPD patient [5]; Myozyme 50 mg/kg q2wk): 2514-2722 U/L
CK (pediatric IOPD patient [5]; Myozyme 60 mg/kg q2wk): 3143-3625 U/L
LVEF (pediatric IOPD patient [5]; Myozyme 60 mg/kg q2wk, 2 D): 70.5%
LVMI (pediatric IOPD patient [5]; Myozyme 60 mg/kg q2wk, 2 D): 26.2 g/m^2
CK (pediatric IOPD patient [5]; Myozyme 30 then 40 mg/kg qwk): 2603 U/L
Pro-BNP (pediatric IOPD patient [5]; Myozyme 30 then 40 mg/kg qwk): 401.5 pg/mL
CK (pediatric IOPD patient [5]; [8]): 880 U/L
Glc4 (pediatric IOPD patient [5]; [8]): 41.88 mmol/mol CRE
Pro-BNP (pediatric IOPD patient [5]; [8]): 10169 pg/mL
LVMI (pediatric IOPD patient [5]; age ~1 week, Myozyme double dose 40 mg/kg q2wk, M-mode): 147 g/m^2
CK (pediatric IOPD patient [5]; change to ATB200 20 mg/kg q2w): 1444 U/L
reactions on ERT (pediatric IOPD patient [5]; human, in vivo): skin rash, dyspnea, a cough and a pale-like complexion

Source: patent US20260207717A1, “METHODS FOR TREATING INFANTILE-ONSET POMPE DISEASE IN PEDIATRIC PATIENTS” (Amicus Therapeutics, Inc., priority 2022, published 2026)
